{
  "source": "patent US6855726B1",
  "about": "“Quinolones as serine protease inhibitors” (Warner-Lambert Company LLC, priority 1998, dated 2005)",
  "key": {"human thrombin": {"target": "T1, human thrombin (Homo sapiens, UniProt P00734)", "T1 construct": "purchased Enzyme Research Laboratories", "assay": "Determination of thrombin IC50 (chromogenic substrate Chromozym TH)", "type": "biochemical", "protocol": "The ability of compounds to act as inhibitors of human thrombin catalytic activity is assessed by determination of that concentration of test substance that inhibits by 50% (IC50) the ability of human thrombin to cleave the chromogenic substrate Chromozym TH (Tosyl-Gly-Pro-Arg-pNA*Ac, Boehringer Mannheim). Typically, 145 μL human thrombin (0.75 nM, Enzyme Research Laboratories) in a HPB buffer (10 mM HEPES, 100 mM NaCl, 0.05% BSA, 0.1% PEG-8000, pH 7.4) and 5 μL of test substance in DMSO (2% final) are incubated for 60 minutes at room temperature. Following preheating to 37° C. for 5 minutes, to this mixture is added 100 μL of Chromozym TH in HPB buffer. The velocity of Chromozym TH hydrolysis is determined at 37° C. by measuring the initial rate of change of the optical density at OD405 nm every 10 seconds for 5 minutes using a ThermoMax® Kinetic Microplate Reader."}, "human trypsin": {"target": "human trypsin (Homo sapiens, UniProt P07477)", "assay": "Determination of trypsin IC50 (chromogenic substrate S2222)", "type": "biochemical", "protocol": "The ability of compounds to act as inhibitors of human trypsin catalytic activity is assessed by determination of that concentration of test substance that inhibits by 50% (IC50) the ability of human trypsin to cleave the chromogenic substrate S2222 (N-Bz-L-Ile-L-Glu-L-Gly-L-Arg-p-nitroanilide. HCl, DiaPharma). Typically, 145 μL human trypsin (0.5 nM final) in 10 mM HEPES, 150 mM NaCl, 0.1% BSA, and 5 μL of the test substance in DMSO (2% final) are incubated for 60 minutes at room temperature. Following preheating to 37° C. for 5 minutes, to this mixture is added 100 μL of S2222 in HBSA buffer (100 μM final), and the velocity of S2222 hydrolysis is determined at 37° C. by measuring the optical density at OD405 nm every 10 seconds over 5 minutes using a ThermoMax® Kinetic Microplate Reader."}, "human factor Xa": {"target": "T2, human factor Xa (Homo sapiens, UniProt P00742)", "T2 construct": "human factor Xa (1 nM final, Enzyme Research Laboratories); purchased Enzyme Research Laboratories", "T2 sequence (P00742 235-488 limits assumed)": "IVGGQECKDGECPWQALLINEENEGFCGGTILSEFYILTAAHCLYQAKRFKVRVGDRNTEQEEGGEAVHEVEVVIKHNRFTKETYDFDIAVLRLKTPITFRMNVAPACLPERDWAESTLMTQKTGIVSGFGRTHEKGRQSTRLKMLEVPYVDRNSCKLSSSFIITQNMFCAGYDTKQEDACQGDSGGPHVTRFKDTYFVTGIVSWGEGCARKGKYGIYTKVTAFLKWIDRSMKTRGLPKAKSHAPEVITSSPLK", "T2 sequence (P00742 41-179 partner limits assumed)": "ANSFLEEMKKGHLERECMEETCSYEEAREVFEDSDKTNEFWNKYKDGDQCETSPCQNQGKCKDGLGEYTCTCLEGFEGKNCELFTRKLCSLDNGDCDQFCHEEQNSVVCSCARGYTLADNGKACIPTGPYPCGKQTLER", "assay": "Determination of factor Xa IC50 (chromogenic substrate S2765)", "type": "biochemical", "protocol": "The ability of compounds to act as inhibitors of human factor Xa catalytic activity is assessed by determination of that concentration of test substance that inhibits by 50% (IC50) the ability of human factor Xa to cleave the chromogenic substrate S2765 (N-CBz-D-Arg-L-Gly-L-Arg-p-nitroanilide. 2HCl, DiaPharma). Typically, 145 μL human factor Xa (1 nM final, Enzyme Research Laboratories) in 10 mM HEPES, 150 mM NaCl, 0.1% BSA, pH 7.4 (HBSA buffer) and 5 μL of test substance in DMSO (2% final) are incubated for 60 minutes at room temperature. Following preheating to 37° C. for 5 minutes, to this mixture is added […] of S2765 in HBSA buffer. The velocity of S2765 hydrolysis is determined at 37° C. by measuring the initial rate of change of the optical density at OD405 nm every 10 seconds for 5 minutes using a ThermoMax®D Kinetic Microplate Reader."}, "[1]": {"details": "canine coronary artery, electrolytic lesion model; Lynch et al., Schaffer et al.; cited from earlier work"}, "[2]": {"details": "rabbit venous thrombosis; Fioravanti et al. 1993; cited from earlier work"}, "[3]": {"details": "dog, adjunct to recombinant tissue plasminogen activator; Mellott et al. 1993; cited from earlier work"}, "[4]": {"details": "rat arteriovenous shunt and venous stasis models; Wong et al. 1996; cited from earlier work"}, "[5]": {"details": "various models of arterial and venous thrombosis; Lapatto et al. 1997; cited from earlier work"}},
  "data": [
    {"molecule": "C[C@@H]1CCC[C@H](C)N1CCCCCN1C(=O)C(c2cc(C(=N)N)ccc2O)Cc2ccccc21", "note": "(stereo partly drawn) [Example 2, 3-(1-5-[(2R,6S)-2,6-dimethyltetrahydro-1(2H)-pyridinyl]pentyl-2-oxo-1,2,3,4-tetrahydro-3-quinolinyl)-4-hydroxybenzenecarboximidamide]", "values": [
      {"measurement": "IC50", "setting": "human thrombin", "value": 1140, "unit": "nM"},
      {"measurement": "IC50", "setting": "human trypsin", "value": 562, "unit": "nM"},
      {"measurement": "IC50", "setting": "human factor Xa", "value": 20, "unit": "nM"}
    ]},
    {"molecule": "rTAP: recombinant tick anticoagulant peptide, a protein or polypeptide factor Xa inhibitor (YNRLCIKPRDWIDECDSNEGGERAYFRNGKGGCDSFWICPEDHTGADYYSSYRDCFNACI; UniProt P17726 1-60, looked up)", "values": [
      {"measurement": "thrombus mass and time to occlusion", "setting": "[1]", "value": "reduce thrombus mass and time to occlusion"},
      {"measurement": "fibrin deposition", "setting": "[2]", "value": "reduce fibrin deposition"},
      {"measurement": "clot lysis and acute reocclusion", "setting": "[3]", "value": "accelerate the recombinant tissue plasminogen activator mediated clot lysis and prevent acute reocclusion"}
    ]},
    {"molecule": "CC(=N)N1CC[C@H](Oc2ccc([C@H](Cc3ccc4ccc(C(=N)N)cc4c3)C(=O)O)cc2)C1", "note": "[DX9065a]", "values": [
      {"measurement": "inhibition of thrombus formation", "setting": "[4]", "value": "inhibition of thrombus formation was achieved at doses that had little effect on APTT"}
    ]},
    {"molecule": "Antistasin: a potent inhibitor of blood coagulation factor Xa, from the Mexican leech Haementeria officinalis (protein, UniProt P15358 18-136, looked up) Antistasin: QGPFGPGCEEAGCPEGSACNIITDRCTCSGVRCRMHCPHGFQRSRYGCEFCKCRLEPMKATCDISECPEGMMCSRLTNKCDCKIDINCRKTCPNGLKRDKLGCEYCECRPKRKLIPRLS", "values": [
      {"measurement": "antithrombotic activity", "setting": "[5]", "value": "displays antithrombotic activity"}
    ]}
  ]
}
